Source: the NIST ThermoML archive (doi:10.1021/je800251v)

Details: Liquid

CCOC(=O)CC [ethyl propanoate]
Details | mass density [kg/m3]
298.15 K, 100 kPa | 884.3
298.15 K, 1000 kPa | 884.8
298.15 K, 2000 kPa | 885.7
298.15 K, 3000 kPa | 886.6
298.15 K, 3340 kPa | 886.9
298.15 K, 5000 kPa | 888.7
298.15 K, 10000 kPa | 892.9
298.15 K, 15000 kPa | 896.9
298.15 K, 20000 kPa | 900.7
298.15 K, 25000 kPa | 904.4
298.15 K, 30000 kPa | 908.9
298.15 K, 35000 kPa | 913.6
303.15 K, 100 kPa | 878.5
303.15 K, 1000 kPa | 879
303.15 K, 2000 kPa | 880
303.15 K, 3000 kPa | 880.9
303.15 K, 3340 kPa | 881.2
303.15 K, 5000 kPa | 883
303.15 K, 10000 kPa | 887.4
303.15 K, 15000 kPa | 891.6
303.15 K, 20000 kPa | 895.6
303.15 K, 25000 kPa | 899.4
303.15 K, 30000 kPa | 904
303.15 K, 35000 kPa | 908.9
308.15 K, 100 kPa | 872.7
308.15 K, 1000 kPa | 873.2
308.15 K, 2000 kPa | 874.2
308.15 K, 3000 kPa | 875.2
308.15 K, 3340 kPa | 875.5
308.15 K, 5000 kPa | 877.4
308.15 K, 10000 kPa | 882
308.15 K, 15000 kPa | 886.3
308.15 K, 20000 kPa | 890.4
308.15 K, 25000 kPa | 894.3
308.15 K, 30000 kPa | 899.2
308.15 K, 35000 kPa | 904.2
313.15 K, 100 kPa | 866.8
313.15 K, 1000 kPa | 867.4
313.15 K, 2000 kPa | 868.4
313.15 K, 3000 kPa | 869.4
313.15 K, 3340 kPa | 869.8
313.15 K, 5000 kPa | 871.7
313.15 K, 10000 kPa | 876.5
313.15 K, 15000 kPa | 880.9
313.15 K, 20000 kPa | 885.1
313.15 K, 25000 kPa | 889.3
313.15 K, 30000 kPa | 894.4
313.15 K, 35000 kPa | 899.5
318.15 K, 100 kPa | 860.9
318.15 K, 1000 kPa | 861.5
318.15 K, 2000 kPa | 862.6
318.15 K, 3000 kPa | 863.7
318.15 K, 3340 kPa | 864.1
318.15 K, 5000 kPa | 866.1
318.15 K, 10000 kPa | 871
318.15 K, 15000 kPa | 875.6
318.15 K, 20000 kPa | 880
318.15 K, 25000 kPa | 884.1
318.15 K, 30000 kPa | 889.1
318.15 K, 35000 kPa | 894.3
323.15 K, 100 kPa | 854.9
323.15 K, 1000 kPa | 856
323.15 K, 2000 kPa | 857.1
323.15 K, 3000 kPa | 858.1
323.15 K, 3340 kPa | 858.4
323.15 K, 5000 kPa | 860.3
323.15 K, 10000 kPa | 865.4
323.15 K, 15000 kPa | 870.2
323.15 K, 20000 kPa | 874.7
323.15 K, 25000 kPa | 879.1
323.15 K, 30000 kPa | 884.3
323.15 K, 35000 kPa | 889.7
328.15 K, 100 kPa | 849.2
328.15 K, 1000 kPa | 850.2
328.15 K, 2000 kPa | 851.3
328.15 K, 3000 kPa | 852.5
328.15 K, 3340 kPa | 852.9
328.15 K, 5000 kPa | 854.7
328.15 K, 10000 kPa | 860
328.15 K, 15000 kPa | 865
328.15 K, 20000 kPa | 869.6
328.15 K, 25000 kPa | 874
328.15 K, 30000 kPa | 879.4
328.15 K, 35000 kPa | 884.9
333.15 K, 100 kPa | 843.1
333.15 K, 1000 kPa | 844.2
333.15 K, 2000 kPa | 845.4
333.15 K, 3000 kPa | 846.6
333.15 K, 3340 kPa | 847
333.15 K, 5000 kPa | 849
333.15 K, 10000 kPa | 854.6
333.15 K, 15000 kPa | 859.7
333.15 K, 20000 kPa | 864.5
333.15 K, 25000 kPa | 869.2
333.15 K, 30000 kPa | 874.8
333.15 K, 35000 kPa | 880.6
338.15 K, 100 kPa | 836.9
338.15 K, 1000 kPa | 838.2
338.15 K, 2000 kPa | 839.5
338.15 K, 3000 kPa | 840.7
338.15 K, 3340 kPa | 841.1
338.15 K, 5000 kPa | 843.1
338.15 K, 10000 kPa | 848.8
338.15 K, 15000 kPa | 854.4
338.15 K, 20000 kPa | 859.4
338.15 K, 25000 kPa | 863.6
338.15 K, 30000 kPa | 869.9
338.15 K, 35000 kPa | 875.8
343.15 K, 100 kPa | 831.1
343.15 K, 1000 kPa | 832.2
343.15 K, 2000 kPa | 833.5
343.15 K, 3000 kPa | 834.8
343.15 K, 3340 kPa | 835.2
343.15 K, 5000 kPa | 837.4
343.15 K, 10000 kPa | 843.4
343.15 K, 15000 kPa | 848.9
343.15 K, 20000 kPa | 854
343.15 K, 25000 kPa | 859.1
343.15 K, 30000 kPa | 865
343.15 K, 35000 kPa | 871
348.15 K, 100 kPa | 824.9
348.15 K, 1000 kPa | 826
348.15 K, 2000 kPa | 827.4
348.15 K, 3000 kPa | 828.8
348.15 K, 3340 kPa | 829.3
348.15 K, 5000 kPa | 831.5
348.15 K, 10000 kPa | 837.7
348.15 K, 15000 kPa | 843.4
348.15 K, 20000 kPa | 848.8
348.15 K, 25000 kPa | 854
348.15 K, 30000 kPa | 860.1
348.15 K, 35000 kPa | 866.3
353.15 K, 100 kPa | 818.7
353.15 K, 1000 kPa | 819.9
353.15 K, 2000 kPa | 821.3
353.15 K, 3000 kPa | 822.7
353.15 K, 3340 kPa | 823.2
353.15 K, 5000 kPa | 825.6
353.15 K, 10000 kPa | 832.1
353.15 K, 15000 kPa | 838
353.15 K, 20000 kPa | 843.5
353.15 K, 25000 kPa | 848.9
353.15 K, 30000 kPa | 855.3
353.15 K, 35000 kPa | 861.6
363.15 K, 100 kPa | 803.5
363.15 K, 1000 kPa | 805.1
363.15 K, 2000 kPa | 806.9
363.15 K, 3000 kPa | 808.7
363.15 K, 3340 kPa | 809.3
363.15 K, 5000 kPa | 812
363.15 K, 10000 kPa | 819.6
363.15 K, 15000 kPa | 826.5
363.15 K, 20000 kPa | 833
363.15 K, 25000 kPa | 839.1
363.15 K, 30000 kPa | 844.8
363.15 K, 35000 kPa | 850.2
373.15 K, 100 kPa | 790.9
373.15 K, 1000 kPa | 792.6
373.15 K, 2000 kPa | 794.5
373.15 K, 3000 kPa | 796.4
373.15 K, 3340 kPa | 797.1
373.15 K, 5000 kPa | 800
373.15 K, 10000 kPa | 808.2
373.15 K, 15000 kPa | 815.6
373.15 K, 20000 kPa | 822.5
373.15 K, 25000 kPa | 829
373.15 K, 30000 kPa | 834.9
373.15 K, 35000 kPa | 840.6
383.15 K, 1000 kPa | 780
383.15 K, 2000 kPa | 782.1
383.15 K, 3000 kPa | 784.1
383.15 K, 3340 kPa | 784.8
383.15 K, 5000 kPa | 787.9
383.15 K, 10000 kPa | 796.6
383.15 K, 15000 kPa | 804.6
383.15 K, 20000 kPa | 811.9
383.15 K, 25000 kPa | 818.7
383.15 K, 30000 kPa | 825
383.15 K, 35000 kPa | 830.9
393.15 K, 1000 kPa | 766.4
393.15 K, 2000 kPa | 768.7
393.15 K, 3000 kPa | 770.8
393.15 K, 3340 kPa | 771.5
393.15 K, 5000 kPa | 775
393.15 K, 10000 kPa | 784.5
393.15 K, 15000 kPa | 793.1
393.15 K, 20000 kPa | 800.8
393.15 K, 25000 kPa | 808
393.15 K, 30000 kPa | 814.7
393.15 K, 35000 kPa | 820.9
